Laboratory results: publication PMC5039424 (2016)

test system: yeast tRNA^Phe (RNA, tRNA) GCGGAUUUAGCUCAGUUGGGAGAGCGCCAGACUGAAGAUCUGGAGGUCCUGUGUUCGAUCCACAGAAUUCGCACCA; experiment: inhibition of lead(II)-induced cleavage, gel; conditions: 10 mM Mg2+, 1 mM NH4+, 0.5 mM Pb2+; 50% inhibition of Pb2+ cleavage; 50 mM Tris-HCl pH 7.5; RNA 2.4 μM

| Ki [µM] | SMILES |
| --- | --- |
| 52 ± 8.3 | CN(C)c1ccc2nc3ccc(N)cc3[s+]c2c1 |
| 98 ± 20 | CN(C)c1ccc2nc3ccc(N(C)C)cc3[s+]c2c1 |
| 58 ± 28 | CNc1ccc2nc3ccc(=[N+](C)C)cc-3sc2c1 |
| 166 ± 42 | CN(C)c1ccc2cc3ccc(N(C)C)cc3[o+]c2c1 |
